Experiments:
[1] = Observation of general health of calves during the 19 weeks treatment period; format: in vivo, Holstein-Friesian calves; settings: three intramuscular treatments, 19 weeks observation
Experimental: Calves were randomly assigned into treatment groups.
All calves were treated with the myostatin propeptide fragment three times with during the observation period. Physical data and samples were collected during the life-time of the calves, such as general health, local reactions, and body weight. Serum samples were collected. Some clinical signs were observed, but they remained within a range that was considered normal for a 19 weeks fattening period. […] The animals were healthy at the time of slaughter and all slaughter samples were collected.

[2] = tested on: myostatin pathway biomarkers; settings: change relative to non-manipulated reference animal
Experimental: Example 2 was repeated using bovine samples analysed in Example 1.
Detection Conjugate "CHI-Bovine-IgG" (conjugated antibody: anti-Bovine IgG-heavy and light chain Antibody, Sheep Polyclonal, catalogue number: A10-115; Supplier: Bethyl Laboratories, Inc., USA) was used instead of the mouse conjugate. All other Imperacer conjugates for the additional myostatin pathway biomarkers were prepared using standard methods as described in EP 2189539 ([0106]-[0122]). For the biomarkers p-AKT, p-FOXO, MyOD1, MyoG, FBO32, ALK type 1, Pax3, Myf-5, MuRF1, CDKN1 and CDK2, tissue homogenate instead of serum was used. Table 7: Biomarker analysis
The additional myostatin pathway biomarkers shown in Table 7 were quantified using immune-PCR.

[3] = tested on: anti-myostatin antibodies
Experimental: Calves were randomly assigned into treatment groups. Twenty one (21) Holstein-Friesian calves (12 male and 9 female) between 9 - 14 weeks of age were included in the study. […] The control group was only injected with the injection fluids, whereas the second group was treated with the myostatin propeptide fragment. The treatments were administered intramuscularly on day 0, day 35 and day 88 of the treatment. Animals were monitored during 19 weeks from the start of the treatment.
Myostatin propeptide fragment (SEQ ID NO 1) was dissolved in sterile arachis oil, and mixed with ViteSel, Freund's Adjuvant Incomplete, or Freund's Adjuvant Complete for injection. […] The control group was injected with the same injection fluid, but without the added peptide. […]
The coated microplate wells were coated with Imperacer® wash buffer "A" using washer-program "block", block against unspecific interaction with "chimera direct block" solution (240 µl/well, 1 min/RT) and with Imperacer® wash buffer "B". After this treatment, the microplate wells were ready for sample incubation. […]
The wells were subsequently washed with Imperacer® wash buffers "B" and "A". 30 µl/well of ready-to-use Imperacer® PCR-mastermix were added to each well. The wells were sealed using real-time PCR foil, and placed into the Imperacer® reader 50 cycles at 95°C with 12 sec per cycle, at 50°C for 30 sec and at 72°C for 30 sec. […]

Sequence: CKMSPINMLYFNGKEQIIYG [myostatin propeptide fragment]
- general health of the calves [1]: did not impact the general health of the calves
- (P)-SMAD2/ SMAD 3 ([2]; calf sample): -
- Act IIB ([2]; calf serum): +
- IgG anti-myostatin antibodies ([2]; calf serum): +
- Leptin ([2]; calf serum): +
- Myostatin Propeptide ([2]; calf serum): -
- (p)-FOxO ([2]; calf tissue homogenate): +
- ALK type 1 ([2]; calf tissue homogenate): -
- CDK2 ([2]; calf tissue homogenate): +
- CDKN1 A ([2]; calf tissue homogenate): +
- FBXO32 ([2]; calf tissue homogenate): -
- MuRF1 ([2]; calf tissue homogenate): -
- Myf-5 ([2]; calf tissue homogenate): +
- MyoD1 ([2]; calf tissue homogenate): +
- MyoG ([2]; calf tissue homogenate): +
- Pax 3 ([2]; calf tissue homogenate): +
- p-AKT ([2]; calf tissue homogenate): +
- Amount of antibodies measured in sample ([3]; anti-myostatin IgG in calf blood serum, intramuscular treatment on day 0, day 35 and day 88): 382 ng/mL
- levels of measured anti-myostatin IgG antibodies and treatment ([3]; blind and open tests, compared to the negative control animals): clear association

Source: patent publication EP3161491B1, “[…] FOR THE DETECTION OF THE MANIPULATION OF MUSCLE GROWTH IN A DOMESTIC ANIMAL” (Stichting Kwaliteitsgarantie Vleeskalversector, priority 2014, dated 2015)
